# Like-named read-outs stand apart in the source and are kept apart here.
# System: IL-10 production by OvA-stimulated splenocytes
# Assay: OvA-stimulated production of IL-10 by splenocytes of OvA-immunized mice
# Conditions: for activity at 0.0001 mg/kg / activity at 0.001 mg/kg / activity at 0.01 mg/kg: Mus musculus, Splenocyte, po
# [1] = OvA/Alum, 0.1 μg/kg i/p, OvA 10 μg/ml
# [2] = OvA/Alum, 0.1 μg/kg i/p, OvA 25 μg/ml
# [3] = OvA/Alum, 0.1 μg/kg i/p, OvA 50 μg/ml
# [4] = OvA/Alum, 0.1 μg/kg i/p, OvA 100 μg/ml
# [5] = OvA/Alum, 1.0 μg/kg i/p, OvA 10 μg/ml
# [6] = OvA/Alum, 1.0 μg/kg i/p, OvA 25 μg/ml
# [7] = OvA/Alum, 1.0 μg/kg i/p, OvA 50 μg/ml
# [8] = OvA/Alum, 1.0 μg/kg i/p, OvA 100 μg/ml
# [9] = OvA/FA, 0.1 μg/kg i/p, OvA 10 μg/ml
# [10] = OvA/FA, 0.1 μg/kg i/p, OvA 25 μg/ml
# [11] = OvA/FA, 0.1 μg/kg i/p, OvA 50 μg/ml
# [12] = OvA/FA, 0.1 μg/kg i/p, OvA 100 μg/ml
# [13] = OvA/FA, 1.0 μg/kg i/p, OvA 10 μg/ml
# [14] = OvA/FA, 1.0 μg/kg i/p, OvA 25 μg/ml
# Procedure: The OvA was administered subcutaneously to the crest in a volume of 200 μl. Mice were immunized on day 1 with OvA in complete Freund's adjuvant (CFA; Sigma) and on day 15 with the antigen in incomplete Freund's adjuvant (IFA; Sigma). The immune response was analyzed on day 29. Mice were also immunized with 10 μg/mouse of OvA using Alum as an adjuvant.
# Thymuses and spleens from mice of each treatment group were pooled, and then minced with scissors. The minced tissues were suspended in sterile PBS to form cell suspensions, filtered through a double gauze layer and centrifuged. Cells were washed twice with PBS, re-suspended in RPMI-1640 (Sigma) with 2.0 mM of L-glutamine, 50 μM of mercaptoethanol, and 10 μg/ml of gentamycin (complete medium); and cell counts were made. (The splenocyte suspension was washed with a 0.86% solution of NH4Cl to pre-lyse erthrocytes.)
# Assessment of Mitogen- and Antigen-Induced Production of Cytokines: Thymic cells (1×10^6/well) in complete medium with 2% FCS were stimulated with ConA (0, 1, and 2 μg/ml). Splenocytes (1×10^6/well) in complete medium with 5% FCS were stimulated with ConA (0, 1, and 5 μg/ml) and with OvA (0-100 μg/ml). […] Supernatants from OvA-stimulated cultures were collected after 72 hours. Supernatants from both cultures were frozen, and kept at 20° C. Concentrations of IL-2, IL-4, IL-10, IL-12R40 and IFNγ in the supernatants were determined by solid-phase EIA with EIA Expansion Kits, available from BD Biosciences (formerly Pharmingen), in accordance with the manufacturer's instructions.
compound,measurement,setting,value
"N[C@H](CCC(=O)N[C@@H](Cc1c[nH]c2ccccc12)C(=O)O)C(=O)O [SCV-07, γ-D-glutamyl-L-tryptophan]",activity at 0.0001 mg/kg,"read-out: Production of IL-10 by splenocytes, % (% of control), OvA/Alum, 0.1 μg/kg per os, OvA 0 μg/ml",100%
same,activity at 0.0001 mg/kg,"read-out: Production of IL-10 by splenocytes, % (% of control), OvA/Alum, 0.1 μg/kg per os, OvA 10 μg/ml",118%
same,activity at 0.0001 mg/kg,"read-out: Production of IL-10 by splenocytes, % (% of control), OvA/Alum, 0.1 μg/kg per os, OvA 25 μg/ml",105%
same,activity at 0.0001 mg/kg,"read-out: Production of IL-10 by splenocytes, % (% of control), OvA/Alum, 0.1 μg/kg per os, OvA 50 μg/ml",132%
same,activity at 0.0001 mg/kg,"read-out: Production of IL-10 by splenocytes, % (% of control), OvA/Alum, 0.1 μg/kg per os, OvA 100 μg/ml",129%
same,activity at 0.001 mg/kg,"read-out: Production of IL-10 by splenocytes, % (% of control), OvA/Alum, 1.0 μg/kg per os, OvA 0 μg/ml",100%
same,activity at 0.001 mg/kg,"read-out: Production of IL-10 by splenocytes, % (% of control), OvA/Alum, 1.0 μg/kg per os, OvA 10 μg/ml",128%
same,activity at 0.001 mg/kg,"read-out: Production of IL-10 by splenocytes, % (% of control), OvA/Alum, 1.0 μg/kg per os, OvA 25 μg/ml",112%
same,activity at 0.001 mg/kg,"read-out: Production of IL-10 by splenocytes, % (% of control), OvA/Alum, 1.0 μg/kg per os, OvA 50 μg/ml",110%
same,activity at 0.001 mg/kg,"read-out: Production of IL-10 by splenocytes, % (% of control), OvA/Alum, 1.0 μg/kg per os, OvA 100 μg/ml",109%
same,activity at 0.01 mg/kg,"read-out: Production of IL-10 by splenocytes, % (% of control), OvA/Alum, 10.0 μg/kg per os, OvA 0 μg/ml",100%
same,activity at 0.01 mg/kg,"read-out: Production of IL-10 by splenocytes, % (% of control), OvA/Alum, 10.0 μg/kg per os, OvA 10 μg/ml",138%
same,activity at 0.01 mg/kg,"read-out: Production of IL-10 by splenocytes, % (% of control), OvA/Alum, 10.0 μg/kg per os, OvA 25 μg/ml",156%
same,activity at 0.01 mg/kg,"read-out: Production of IL-10 by splenocytes, % (% of control), OvA/Alum, 10.0 μg/kg per os, OvA 50 μg/ml",197%
same,activity at 0.01 mg/kg,"read-out: Production of IL-10 by splenocytes, % (% of control), OvA/Alum, 10.0 μg/kg per os, OvA 100 μg/ml",218%
same,activity at 0.0001 mg/kg,"read-out: Production of IL-10 by splenocytes, % (% of control), OvA/FA, 0.1 μg/kg per os, OvA 0 μg/ml",100%
same,activity at 0.0001 mg/kg,"read-out: Production of IL-10 by splenocytes, % (% of control), OvA/FA, 0.1 μg/kg per os, OvA 10 μg/ml",136%
same,activity at 0.0001 mg/kg,"read-out: Production of IL-10 by splenocytes, % (% of control), OvA/FA, 0.1 μg/kg per os, OvA 25 μg/ml",210%
same,activity at 0.0001 mg/kg,"read-out: Production of IL-10 by splenocytes, % (% of control), OvA/FA, 0.1 μg/kg per os, OvA 50 μg/ml",248%
same,activity at 0.0001 mg/kg,"read-out: Production of IL-10 by splenocytes, % (% of control), OvA/FA, 0.1 μg/kg per os, OvA 100 μg/ml",270%
same,activity at 0.001 mg/kg,"read-out: Production of IL-10 by splenocytes, % (% of control), OvA/FA, 1.0 μg/kg per os, OvA 0 μg/ml",100%
same,activity at 0.001 mg/kg,"read-out: Production of IL-10 by splenocytes, % (% of control), OvA/FA, 1.0 μg/kg per os, OvA 10 μg/ml",234%
same,activity at 0.001 mg/kg,"read-out: Production of IL-10 by splenocytes, % (% of control), OvA/FA, 1.0 μg/kg per os, OvA 25 μg/ml",241%
same,activity at 0.001 mg/kg,"read-out: Production of IL-10 by splenocytes, % (% of control), OvA/FA, 1.0 μg/kg per os, OvA 50 μg/ml",275%
same,activity at 0.001 mg/kg,"read-out: Production of IL-10 by splenocytes, % (% of control), OvA/FA, 1.0 μg/kg per os, OvA 100 μg/ml",317%
same,activity at 0.01 mg/kg,"read-out: Production of IL-10 by splenocytes, % (% of control), OvA/FA, 10.0 μg/kg per os, OvA 0 μg/ml",100%
same,activity at 0.01 mg/kg,"read-out: Production of IL-10 by splenocytes, % (% of control), OvA/FA, 10.0 μg/kg per os, OvA 10 μg/ml",133%
same,activity at 0.01 mg/kg,"read-out: Production of IL-10 by splenocytes, % (% of control), OvA/FA, 10.0 μg/kg per os, OvA 25 μg/ml",174%
same,activity at 0.01 mg/kg,"read-out: Production of IL-10 by splenocytes, % (% of control), OvA/FA, 10.0 μg/kg per os, OvA 50 μg/ml",216%
same,activity at 0.01 mg/kg,"read-out: Production of IL-10 by splenocytes, % (% of control), OvA/FA, 10.0 μg/kg per os, OvA 100 μg/ml",250%
same,Production of IL-10 by splenocytes,"OvA/Alum, 0.1 μg/kg i/p, OvA 0 μg/ml",2177.8 pg/mL
same,Production of IL-10 by splenocytes,[1],1762.5 pg/mL
same,"Production of IL-10 by splenocytes, % (% of control)",[1],80.9%
same,Production of IL-10 by splenocytes,[2],1946.1 pg/mL
same,"Production of IL-10 by splenocytes, % (% of control)",[2],89.4%
same,Production of IL-10 by splenocytes,[3],1851.3 pg/mL
same,"Production of IL-10 by splenocytes, % (% of control)",[3],85.0%
same,Production of IL-10 by splenocytes,[4],2189.5 pg/mL
same,"Production of IL-10 by splenocytes, % (% of control)",[4],100.5%
same,Production of IL-10 by splenocytes,"OvA/Alum, 0.1 μg/kg per os, OvA 0 μg/ml",1351.1 pg/mL
same,Production of IL-10 by splenocytes,"OvA/Alum, 0.1 μg/kg per os, OvA 10 μg/ml",1587.9 pg/mL
same,Production of IL-10 by splenocytes,"OvA/Alum, 0.1 μg/kg per os, OvA 25 μg/ml",1419.5 pg/mL
same,Production of IL-10 by splenocytes,"OvA/Alum, 0.1 μg/kg per os, OvA 50 μg/ml",1783.6 pg/mL
same,Production of IL-10 by splenocytes,"OvA/Alum, 0.1 μg/kg per os, OvA 100 μg/ml",1741.5 pg/mL
same,Production of IL-10 by splenocytes,"OvA/Alum, 1.0 μg/kg i/p, OvA 0 μg/ml",2035.7 pg/mL
same,Production of IL-10 by splenocytes,[5],1758.9 pg/mL
same,"Production of IL-10 by splenocytes, % (% of control)",[5],86.4%
same,Production of IL-10 by splenocytes,[6],1829.8 pg/mL
same,"Production of IL-10 by splenocytes, % (% of control)",[6],89.9%
same,Production of IL-10 by splenocytes,[7],1584.7 pg/mL
same,"Production of IL-10 by splenocytes, % (% of control)",[7],77.8%
same,Production of IL-10 by splenocytes,[8],1840.7 pg/mL
same,"Production of IL-10 by splenocytes, % (% of control)",[8],90.4%
same,Production of IL-10 by splenocytes,"OvA/Alum, 1.0 μg/kg per os, OvA 0 μg/ml",1741.5 pg/mL
same,Production of IL-10 by splenocytes,"OvA/Alum, 1.0 μg/kg per os, OvA 10 μg/ml",2220.9 pg/mL
same,Production of IL-10 by splenocytes,"OvA/Alum, 1.0 μg/kg per os, OvA 25 μg/ml",1957.2 pg/mL
same,Production of IL-10 by splenocytes,"OvA/Alum, 1.0 μg/kg per os, OvA 50 μg/ml",1920.4 pg/mL
same,Production of IL-10 by splenocytes,"OvA/Alum, 1.0 μg/kg per os, OvA 100 μg/ml",1898.4 pg/mL
same,Production of IL-10 by splenocytes,"OvA/Alum, 10.0 μg/kg per os, OvA 0 μg/ml",816.4 pg/mL
same,Production of IL-10 by splenocytes,"OvA/Alum, 10.0 μg/kg per os, OvA 10 μg/ml",1127.5 pg/mL
same,Production of IL-10 by splenocytes,"OvA/Alum, 10.0 μg/kg per os, OvA 25 μg/ml",1272.5 pg/mL
same,Production of IL-10 by splenocytes,"OvA/Alum, 10.0 μg/kg per os, OvA 50 μg/ml",1608.4 pg/mL
same,Production of IL-10 by splenocytes,"OvA/Alum, 10.0 μg/kg per os, OvA 100 μg/ml",1780.1 pg/mL
same,Production of IL-10 by splenocytes,"OvA/FA, 0.1 μg/kg i/p, OvA 0 μg/ml",785.1 pg/mL
same,Production of IL-10 by splenocytes,[9],989.4 pg/mL
same,"Production of IL-10 by splenocytes, % (% of control)",[9],126.0%
same,Production of IL-10 by splenocytes,[10],1234.3 pg/mL
same,"Production of IL-10 by splenocytes, % (% of control)",[10],157.2%
same,Production of IL-10 by splenocytes,[11],1194.2 pg/mL
same,"Production of IL-10 by splenocytes, % (% of control)",[11],152.1%
same,Production of IL-10 by splenocytes,[12],1502.4 pg/mL
same,"Production of IL-10 by splenocytes, % (% of control)",[12],191.4%
same,Production of IL-10 by splenocytes,"OvA/FA, 0.1 μg/kg per os, OvA 0 μg/ml",702.5 pg/mL
same,Production of IL-10 by splenocytes,"OvA/FA, 0.1 μg/kg per os, OvA 10 μg/ml",958.9 pg/mL
same,Production of IL-10 by splenocytes,"OvA/FA, 0.1 μg/kg per os, OvA 25 μg/ml",1478.2 pg/mL
same,Production of IL-10 by splenocytes,"OvA/FA, 0.1 μg/kg per os, OvA 50 μg/ml",1739.2 pg/mL
same,Production of IL-10 by splenocytes,"OvA/FA, 0.1 μg/kg per os, OvA 100 μg/ml",1895.4 pg/mL
same,Production of IL-10 by splenocytes,"OvA/FA, 1.0 μg/kg i/p, OvA 0 μg/ml",457.4 pg/mL
same,Production of IL-10 by splenocytes,[13],813.4 pg/mL
same,"Production of IL-10 by splenocytes, % (% of control)",[13],177.8%
same,Production of IL-10 by splenocytes,[14],774.1 pg/mL
same,"Production of IL-10 by splenocytes, % (% of control)",[14],169.2%
same,Production of IL-10 by splenocytes,"OvA/FA, 1.0 μg/kg i/p, OvA 50 μg/ml",852.4 pg/mL
